Test results from patent US20170290882A1, “Specific Combined Therapy of Malignant Tumors with a Cytostatic and Its Modifier” (priority 2015, published 2017).

Tested on: P388 lymphoplastic leukemia
Assay: Combined therapy DDP+GMDP-A in the P388 lymphoplastic leukemia model
Assay type: in vivo, mice BDF1
Details: for Tumor volume / tumor growth inhibition (TGI) / Average life time / ILT (increase of the animal life time) / Metastasis MF (tumor metastasis frequency) / Metastasis MI (metastasis inhibition rate): DDP, if given, single 4 mg/kg i.v.
[1] = day 7, early start (1st day), 10-fold GMDP-A 3.75 mg/kg s.c.
[2] = day 7, early start (1st day), 21-fold GMDP-A 3.75 mg/kg s.c.
[3] = day 7, late start (5th day), 5-fold GMDP-A 3.75 mg/kg s.c.
[4] = day 7, late start (5th day), 10-fold GMDP-A 3.75 mg/kg s.c.
[5] = day 9, early start (1st day), 5-fold GMDP-A 3.75 mg/kg s.c.
[6] = day 9, early start (1st day), 10-fold GMDP-A 3.75 mg/kg s.c.
[7] = day 9, early start (1st day), 21-fold GMDP-A 3.75 mg/kg s.c.
[8] = day 9, late start (5th day), 5-fold GMDP-A 3.75 mg/kg s.c.
[9] = day 9, late start (5th day), 10-fold GMDP-A 3.75 mg/kg s.c.
[10] = day 12, early start (1st day), 5-fold GMDP-A 3.75 mg/kg s.c.
[11] = day 12, early start (1st day), 10-fold GMDP-A 3.75 mg/kg s.c.
[12] = day 12, early start (1st day), 21-fold GMDP-A 3.75 mg/kg s.c.
[13] = day 12, late start (5th day), 5-fold GMDP-A 3.75 mg/kg s.c.
[14] = day 12, late start (5th day), 10-fold GMDP-A 3.75 mg/kg s.c.
[15] = day 14, early start (1st day), 5-fold GMDP-A 3.75 mg/kg s.c.
[16] = day 14, early start (1st day), 10-fold GMDP-A 3.75 mg/kg s.c.
[17] = day 14, early start (1st day), 21-fold GMDP-A 3.75 mg/kg s.c.
[18] = day 14, late start (5th day), 5-fold GMDP-A 3.75 mg/kg s.c.
[19] = day 14, late start (5th day), 10-fold GMDP-A 3.75 mg/kg s.c.
[20] = day 19, early start (1st day), 5-fold GMDP-A 3.75 mg/kg s.c.
[21] = day 19, early start (1st day), 10-fold GMDP-A 3.75 mg/kg s.c.
[22] = day 19, early start (1st day), 21-fold GMDP-A 3.75 mg/kg s.c.
[23] = day 19, late start (5th day), 5-fold GMDP-A 3.75 mg/kg s.c.
[24] = day 19, late start (5th day), 10-fold GMDP-A 3.75 mg/kg s.c.
[25] = early start (1st day), 5-fold GMDP-A 3.75 mg/kg s.c.
[26] = early start (1st day), 10-fold GMDP-A 3.75 mg/kg s.c.
[27] = early start (1st day), 21-fold GMDP-A 3.75 mg/kg s.c.
[28] = late start (5th day), 5-fold GMDP-A 3.75 mg/kg s.c.
[29] = late start (5th day), 10-fold GMDP-A 3.75 mg/kg s.c.

Method: They were transplanted on the right-side surface of the animal body.
The animals with tumors were treated in test groups at the early (24 hours after tumor inoculation) and late (5 days after tumor inoculation) terms of the tumor growth using a single cytostatic injection intravenously in a dose equal to ½ or ¼ of therapeutic one and various schedules for GMDP-A injection: • Primary subcutaneous injection of GMDP-A modifier in a single dose 3.75 mg/kg; • Repeated protracted subcutaneous administration of GMDP-A modifier according to different schedules: 4-fold, 9-fold and 20-fold, once per day, in a single dose of 3.75 mg/kg (course dose is 18.75 mg/kg, 37.5 mg/kg and 78.75 mg/kg, correspondingly). Dosage frequency depends upon the model (histological form of transplanted tumor).
To identify efficiency of the claimed combined therapy, independent medication was carried out as a control after tumor inoculation using one component of binary therapy-cytostatic drug or a modifier. Cytostatic was injected intravenously in amount of ½ or ¼ of therapeutic dose once after 24 hours or 5 days after tumor inoculation; GMDP-A modifier was administered subcutaneously in a single dose of 3.75 mg/kg 5-fold from the 1st day to the 5th day or from the 5th day to the 9th day, or 10-fold from the 1st day to the 10th day or from the 5th day to the 14th day, or 21-fold from the 1st day to the 21st day after tumor inoculation.
Anti-tumor efficiency of the claimed combined therapy and comparative monotherapy using only a cytostatic or only GMDP-A modifier was assessed by the criteria commonly used in experimental oncology: tumor volume (TV), tumor growth inhibition (TGI), increase of the animal life time (ILT), tumor metastasis frequency (MF), metastasis inhibition rate (MI).
Efficiency of the combined therapy—chemotherapy with cisplatin cytostatic (DDP) and bioherapy with GMDP-A was assessed on P388 lymphoplastic leukemia model inoculated to mice BDF1, females, subcutaneously on the right-side body surface.
GMDP-A was administered to mice subcutaneously as a single dose of 3.75 mg/kg every day with different schedules: • Five-fold (total dose is 18.75 mg/kg) on the 1st day to the 5th day or on the 5th day to the 9th day after tumor inoculation; • Ten-fold (total dose is 37.5 mg/kg) on the 1st day to the 10th day or on the 5th day to the 14th day after tumor inoculation; • Twenty-one-fold (total dose is 78.75 mg/kg) on the 1st day to the 21st st day after tumor inoculation.
DDP (Cisplatin, Cisplatin Teva trade mark, manufacturer is Teva Pharmaceutical Industries Ltd., Israel, fabricated at Pharmachemie B.V., the Netherlands) was administered intravenously as a single dose ma 4 mg/kg (½ of therapeutic dose).

CC(=O)NC1C(OC2C(CO)OC(O)C(NC(C)=O)C2OC(C)C(=O)NC(C)C(=O)NC(CCC(=O)O)C(=O)O)OC(CO)C(O)C1O [GMDP-A, N-acetyl-D-glucosaminyl-β-(1-4)-N-acetylmuramyl-L-alanyl-D-glutamic acid]
Tumor volume [1]: 66.6 ± 6 mm^3 | tumor growth inhibition (TGI) [1]: 37% | Tumor volume [2]: 73.5 ± 4.8 mm^3 | tumor growth inhibition (TGI) [2]: 30% | Tumor volume [3]: 63 ± 12 mm^3 | tumor growth inhibition (TGI) [3]: 31% | Tumor volume [4]: 86.5 ± 5.9 mm^3 | tumor growth inhibition (TGI) [4]: 18% | Tumor volume [5]: 124 ± 7 mm^3 | tumor growth inhibition (TGI) [5]: 36% | Tumor volume [6]: 108.6 ± 14.2 mm^3 | tumor growth inhibition (TGI) [6]: 24% | Tumor volume [7]: 120.6 ± 12.5 mm^3 | tumor growth inhibition (TGI) [7]: 16% | Tumor volume [8]: 107 ± 18 mm^3 | tumor growth inhibition (TGI) [8]: 45% | Tumor volume [9]: 105 ± 9 mm^3 | tumor growth inhibition (TGI) [9]: 26% | Tumor volume [10]: 204 ± 54 mm^3 | tumor growth inhibition (TGI) [10]: 6% | Tumor volume [11]: 187.3 ± 27.4 mm^3 | tumor growth inhibition (TGI) [11]: 4% | Tumor volume [12]: 159.0 ± 14.7 mm^3 | tumor growth inhibition (TGI) [12]: 18% | Tumor volume [13]: 172 ± 51 mm^3 | tumor growth inhibition (TGI) [13]: 21% | Tumor volume [14]: 163.8 ± 13.5 mm^3 | tumor growth inhibition (TGI) [14]: 16% | Tumor volume [15]: 257 ± 24 mm^3 | tumor growth inhibition (TGI) [15]: 16% | Tumor volume [16]: 245.3 ± 30.5 mm^3 | tumor growth inhibition (TGI) [16]: 9% | Tumor volume [17]: 200.7 ± 17.3 mm^3 | tumor growth inhibition (TGI) [17]: 25% | Tumor volume [18]: 257 ± 53 mm^3 | tumor growth inhibition (TGI) [18]: 16% | Tumor volume [19]: 242.4 ± 18.3 mm^3 | tumor growth inhibition (TGI) [19]: 10% | Tumor volume [20]: 318 ± 42 mm^3 | tumor growth inhibition (TGI) [20]: 6% | Tumor volume [21]: 566.9 ± 50.2 mm^3 | tumor growth inhibition (TGI) [21]: 11% | Tumor volume [22]: 432.1 ± 67.9 mm^3 | tumor growth inhibition (TGI) [22]: 32% | Tumor volume [23]: 302 ± 103 mm^3 | tumor growth inhibition (TGI) [23]: 11% | Tumor volume [24]: 510.1 ± 46.6 mm^3 | tumor growth inhibition (TGI) [24]: 20% | Average life time [25]: 22 ± 1.2 days | ILT (increase of the animal life time) [25]: 21% | Average life time [26]: 24 ± 0.5 days | ILT (increase of the animal life time) [26]: 0% | Metastasis MF (tumor metastasis frequency) [26]: 100% | Metastasis MI (metastasis inhibition rate) [26]: 10% | Average life time [27]: 23 ± 1.6 days | ILT (increase of the animal life time) [27]: −4% | Metastasis MF (tumor metastasis frequency) [27]: 100% | Metastasis MI (metastasis inhibition rate) [27]: 22% | efficiency for individual use (without chemotherapy) (example 1): did not reach a biologically significant level | Average life time [28]: 20 ± 0.9 days | ILT (increase of the animal life time) [28]: 7% | Average life time [29]: 24 ± 0.8 days | ILT (increase of the animal life time) [29]: 0% | Metastasis MF (tumor metastasis frequency) [29]: 100% | Metastasis MI (metastasis inhibition rate) [29]: 8%
